The text below walks through data of patent publication US9738610B2, “Indazole derivatives and uses thereof” (Whitehead Institute for Biomedical Research, priority 2012, dated 2017).

For series [1], the system named is C. albicans CaCi-2. As to the kind of experiment: Secondary single-agent (no-fluconazole) activity assay. Particulars: in the absence of fluconazole; read-out: Target Potency (μM) Mean ± S.E.M CaCi-2^b IC50. It counts as cell-based, Candida albicans. On the procedure:
Clear, flat-bottom, black, 384-well plates were obtained from Corning. […] Pen/Strep was obtained from Gibco and prepared 100× in PBS. Fluconazole was obtained from Sigma and prepared in 2 mg/ml stock solution in PBS. Alamar Blue was obtained from Biosource International (Catalog No. DAL1100). Phosphate buffered solution (PBS) without calcium and magnesium was obtained from Cellgro.
Fungal inoculum was prepared as follows: 500 μl of yeast was inoculated from cryopreserved stock into a 250-ml shaker flask containing 30 ml growth medium and shaken overnight (16 hours) at 30° C. The culture was spun down, and the broth was poured off and washed with RPMI medium. The culture was spun down again, and the broth was poured off and resuspended in RPMI medium. The OD 600 of 1 ml of fungal culture in a cuvette was read using a standard optical density reader with growth medium as a background blank. The desired volume of fungal inoculum was diluted to starting OD of the fungal inoculum of 0.00015 A600.
Pen/Strep was added to the media to a final 1% concentration. A Combi NL (Thermo) was used to dispense 20 μl/well of assay media into all wells. Geldanamycin (1.5 mM) and fluconazole (0.2 mg/ml) were mixed for the positive control. Then, 80 nl of positive control solution was dispensed into the positive control wells using Thermo Combi nL for a final concentration of 3 μM geldanamycin and 8 μg/ml fluconazole. Then, 100 nl of test compound were pinned from the compound plates into assay plates using a CyBi-Well pin tool. A further 20 μl/well of RPMI synthetic defined medium culture was dispensed into 384-well, black plates. Fungal suspension (20 μl/well) was dispensed into all wells. The plates were incubated in a humidified (90% humidity) Liconic incubator at 37° C. without agitation for 48 hours. Alamar Blue Reagent was diluted 1:40 in Ca/Mg-free PBS. To all plates, 6.4 μl/well of the diluted Alamar Blue was added to the plates to a final dilution factor of 1:200. The plates were incubated for 2 hours at room temperature. Next, RFU of wells was read on a standard plate reader as a measure of relative fungal growth.

Series [2] relates to C. albicans CaCi-8. Kind of series: microbe, parasite or virus in culture. It counts as cell-based, Candida albicans. The conditions noted are these: in the presence of fluconazole; read-out: Target Potency (μM) Mean ± S.E.M CaCi-8^a IC50. As for the experimental part:
This subset was re-subjected to the primary assay and was also tested concurrently in two secondary assays. Secondary assay 1 measured chemosensitization of the more resistant CaCi-8 strain. Secondary assay 2 eliminated anything with inherently antifungal activity. […] A final assay (secondary assay 3) was incorporated to discard any compound displaying toxicity to mammalian fibroblasts. […] This screening campaign is also illustrated in FIG. 3B.
Those that inhibited growth in the resistant strain were also tested for toxicity against Candida in the absence of fluconazole and for toxicity against mammalian cells using a fluorescence reporter assay. The positive control for screening in the Candida and mammalian cell assays was the Hsp90 inhibitor geldanamycin (acting in concert with fluconazole; FIG. 4). Compounds that passed these four hurdles were binned through use of a Saccharomyces assay to determine whether the mechanism of action might be through the Hsp90 pathway, the calcineurin pathway, or an uncategorized mechanism.

Series [3] is described as follows: Plasma stability. Particulars: % remaining in human plasma after a 5-hour incubation.
Series [4] is described as follows: Plasma protein binding. Particulars: % bound in human plasma.
Series [5] concerns the target T1, yeast (Saccharomyces cerevisiae, UniProt P00163).
T1 construct: Mitochondrial membranes were prepared from yeast; endogenous in cells; host or cells: yeast (mitochondrial membranes)
As to the kind of experiment: IC50 values and selectivity of Table 10A (target yeast, anti-target human cytochrome). It counts as biochemical. The conditions noted are these: for IC50: target is yeast; for Selectivity* (anti-target IC50)/(target IC50): target yeast, anti-target human cytochrome. As for the experimental part:
All measurements were performed in triplicate.

Take `O=C(O)Cn1nc(-c2ccccc2)c2ccccc21` [Compound 5309553]: the IC50 in series [1] and in series [2] was above 26 µM each time. Also, in series [3], the “Plasma Stability” value is listed as above 99%. In series [4], the “Plasma Protein Binding” value turned out to be 97%.
Regarding `COC(=O)Cn1nc(-c2ccccc2)c2cc(Cl)ccc21` [Compound 9551137], the half-maximal inhibitory concentration (IC50) was above 26 µM in series [1] and 9.84 µM in series [2]. Moreover, the “Plasma Stability” value in series [3] is on record as below 1.0%. Besides, in series [4], the “Plasma Protein Binding” value is given as above 99%.
As to `CCOC(=O)Cn1nc(-c2ccccc2)c2ccccc21` [Compound 13330959], the IC50 in series [1] and in series [2] was above 26 µM each time. In addition, in series [3], the “Plasma Stability” value was found to be 20%. In addition, in series [4], the “Plasma Protein Binding” value was 99%.
Regarding `COC(=O)Cn1nc(-c2ccc(Cl)cc2)c2ccccc21` [Compound 46856253], the half-inhibitory concentration (IC50) was above 26 µM in series [1] and 11.6 µM in series [2]. Further, the “Plasma Stability” value in series [3] was found to be 6.4%. Moreover, the “Plasma Protein Binding” value in series [4] was above 99%.
For the compound `COC(=O)Cn1nc(C)c2ccccc21` [Compound 46856254], the IC50 in series [2] came out at 21.3 ± 8.1 µM. The “Plasma Stability” value in series [3] was 3.0%. The “Plasma Protein Binding” value in series [4] worked out at 42%.
In the case of `COC(=O)Cn1nc(-c2ccc(F)cc2F)c2ccccc21` [Compound I-70], in series [5], it took 275 nM to reach half-maximal inhibition (IC50) and the “Selectivity* (anti-target IC50)/(target IC50)” value (“Selectivity*” below) is recorded as 58.2.
Consider `COC(=O)Cn1nc(-c2cccc(C(F)(F)F)c2)c2ccccc21` [Compound I-72], for which, in series [5], the 50% inhibitory concentration (IC50) came to 40 nM and the “Selectivity*” value is 200.
Take `CS(=O)(=O)Cn1nc(-c2ccccc2)c2ccccc21` [Compound I-73]: the 50% inhibitory concentration (IC50) in series [5] is above 80000 nM.
In the case of `COC(=O)Cn1nc(-c2cccs2)c2ccccc21` [Compound I-76], in series [5], the half-inhibitory concentration (IC50) stood at 1250 nM and the “Selectivity*” value came out at 32.
Taken in the same sequence, the figures for `COC(=O)Cn1nc(-c2cccc(OCCC34CC5CC(CC(C5)C3)C4)c2)c2ccccc21` [Compound I-80] were 12.5 nM and 20.
The like results for `COC(=O)Cn1nc(-c2ccccc2)c2c(C)cccc21` [Compound I-81] were, in that order, 1250 nM and 8.
For `COC(=O)Cn1nc(-c2ccccc2)c2cc(C(F)(F)F)ccc21` [Compound I-83], in series [5], half-maximal inhibition (IC50) was put at 40000 nM and the “Selectivity*” value is 3.
`Cc1nnc(Cn2nc(-c3ccccc3)c3ccccc32)o1` [Compound I-84]: in series [5], the 50% inhibitory concentration (IC50) came out at 8000 nM and the “Selectivity*” value is reported as above 32.
As for `c1ccc(-c2nn(Cc3ncon3)c3ccccc23)cc1` [Compound I-85], in series [5], the half-inhibitory concentration (IC50) was 2000 nM and the “Selectivity*” value came out at 40.
Consider `Cc1nc(Cn2nc(-c3ccccc3)c3ccccc32)no1` [Compound I-86], for which, in series [5], 5000 nM corresponded to half-maximal inhibition (IC50) and the “Selectivity*” value was above 32.
In the case of `COC(=O)Cn1nc(-c2cc(C(F)(F)F)ccc2F)c2ccccc21` [Compound I-88], in series [5], the IC50 worked out at 25 nM and the “Selectivity*” value worked out at 200.
The like results for `COC(=O)Cn1nc(-c2ccccc2)c2c(C(F)(F)F)cccc21` [Compound I-89] were, in that order, 10000 nM and 3.75.
On to `Cn1nnc(Cn2nc(-c3ccccc3)c3ccccc32)n1` [Compound I-90], for which, in series [5], the IC50 was 1250 nM and the “Selectivity*” value was 32.
In series [5], `Cn1nnnc1Cn1nc(-c2ccccc2)c2ccccc21` [Compound I-91] had an IC50 above 20000 nM.
Regarding `c1ccc(-c2nn(Cc3c[nH]nn3)c3ccccc23)cc1` [Compound I-93], in series [5], the IC50 is 25000 nM and the “Selectivity*” value is given as above 6.
Take `Cn1cc(Cn2nc(-c3ccccc3)c3ccccc32)nn1` [Compound I-94]: in series [5], the IC50 is 40000 nM and the “Selectivity*” value is reported as above 4.
On to `Cn1nncc1Cn1nc(-c2ccccc2)c2ccccc21` [Compound I-95], for which, in series [5], the IC50 was above 20000 nM.
For the compound `Cn1nnc(Cn2nc(-c3cc(C(F)(F)F)ccc3F)c3ccccc32)n1` [Compound I-98], in series [5], the IC50 turned out to be 63 nM and the “Selectivity*” value came out at 48.
Taken in the same sequence, the figures for `COC(=O)Cn1nc(-c2cc(OCCCC3CCCCC3)ccc2F)c2ccccc21` [Compound I-100] were 7 nM and 54.
Consider `COC(=O)Cn1nc(-c2cc(OCCCC3CCCCC3)ccc2F)c2cccc(C)c21` [Compound I-101], for which, in series [5], inhibition was half-maximal at 1.5 nM (IC50) and the “Selectivity*” value was found to be 49.
As to `Cc1cccc2c(-c3cc(OCCCC4CCCCC4)ccc3F)nn(Cc3nnn(C)n3)c12` [Compound I-103], in series [5], inhibition was half-maximal at 7 nM (IC50) and the “Selectivity*” value is given as 71.
Consider `FC(F)Cn1nc(-c2ccccc2)c2ccccc21` [Compound I-110], for which, in series [5], the IC50 was above 120000 nM.
Same read-out and setting: the result for `N#Cc1ncccc1-n1nc(-c2ccccc2)c2ccccc21` [Compound I-112] reads above 120000 nM; that for `c1ccc(-c2nn(Cc3ccccn3)c3ccccc23)cc1` [Compound I-114], above 120000 nM; that for `COC(=O)Cn1nc(-c2cccnc2)c2ccccc21` [Compound I-121], 15000 nM.
As to `c1ccc(-c2nn(Cc3ncccn3)c3ccccc23)cc1` [Compound I-123], the IC50 in series [5] was above 120000 nM.
Take `Fc1ccc(C(F)(F)F)cc1-c1nn(Cc2cnccn2)c2ccccc12` [Compound I-125]: in series [5], the half-inhibitory concentration (IC50) amounted to 59 nM and the “Selectivity*” value was determined as 340.
Consider `Cc1cccc2c(-c3cc(C(F)(F)F)ccc3F)nn(Cc3cnccn3)c12` [Compound I-126], for which, in series [5], the IC50 came to 94 nM and the “Selectivity*” value stood at 320.
For `COC(=O)Cn1nc(-c2c(C)cccc2C)c2ccccc21` [Compound I-127], in series [5], the 50% inhibitory concentration (IC50) was above 32000 nM.
Regarding `COC(=O)Cn1nc(-c2c(F)cccc2F)c2ccccc21` [Compound I-128], in series [5], the half-maximal inhibitory concentration (IC50) worked out at 500 nM and the “Selectivity*” value amounted to 32.
Turning to `COC(=O)Cn1nc(-c2cc(F)ccc2F)c2ccccc21` [Compound I-129], in series [5], the IC50 turned out to be 150 nM and the “Selectivity*” value is 133.
As for `COC(=O)Cn1nc(-c2cccc(F)c2F)c2ccccc21` [Compound I-130], in series [5], inhibition was half-maximal at 250 nM (IC50) and the “Selectivity*” value is recorded as 32.
As to `COC(=O)Cn1nc(-c2cc(F)ccc2C)c2ccccc21` [Compound I-131], in series [5], the IC50 was 400 nM and the “Selectivity*” value came out at 40.
Consider `COC(=O)Cn1nc(-c2ccccc2Cl)c2ccccc21` [Compound I-132], for which, in series [5], half-maximal inhibition (IC50) was put at 750 nM and the “Selectivity*” value came to 32.
Take `COC(=O)Cn1nc(-c2cccc(OCc3ccccc3)c2C)c2ccccc21` [Compound I-133]: in series [5], the half-inhibitory concentration (IC50) came out at 400 nM and the “Selectivity*” value was 30.
`COC(=O)Cn1nc(-c2cc(OCc3ccccc3)ccc2C)c2ccccc21` [Compound I-135]: in series [5], the IC50 was found to be 800 nM and the “Selectivity*” value is recorded as 3.75.
`COC(=O)Cn1nc(-c2cccc(OCCN(C)C)c2)c2ccccc21` [Compound I-137] displayed a concentration for half-maximal inhibition (IC50) in series [5] above 32000 nM.
In series [5], `CCN(CC)CCOc1cccc(-c2nn(CC(=O)OC)c3ccccc23)c1` [Compound I-138] had an IC50 above 32000 nM.
In the case of `COC(=O)Cn1nc(-c2cccc(OCCN(C(C)C)C(C)C)c2)c2ccccc21` [Compound I-139], in series [5], the IC50 came to 1000 nM and the “Selectivity*” value was 6.
Turning to `COC(=O)Cn1nc(-c2cccc(OCCC3CCCCC3)c2)c2ccccc21` [Compound I-141], in series [5], the 50% inhibitory concentration (IC50) amounted to 62.5 nM and the “Selectivity*” value came to 12.
